Measured values reported in US4211551A, “Herbicide” (Siegfried AG, priority 1976, dated 1980).

Experiments:
[1] = tested on: Wild oat (Avena fatua); assay: Green-house test, control of Wild oat (EWRC-scale); assay type: in vivo; settings: scale 1 = complete absence of plant damage, 9 = complete damage
Text: (§1) wherein AK is the number of the individual plants of the specific weed in the untreated zero-control area and AB is the corresponding number of weed plants in the treated area. The results of these tests for three different dosage amounts with the inventive CBPA (column A) and the prior art Methabenzthiazuron are summarized in Table I below. This table further includes compatibility data of three types of crop plants for the tested composition. Crop compatibility was rated according to the evaluation scale of the "European Weed Research Council (EWRC)." In this scale, numeral 1 indicates complete absence of plant damage symptoms while numeral 9 indicates complete damage. For practical purposes, the crop tolerance limit is assumed to be between numerals 4 and 5.
Green-house tests were made to determine the activity of CBPA in the control of Wild oat (Avena fatua), a very noxious weed in many crop cultures. The test plants were seeded and cultured in pots at temperatures of 20° to 21° C. Effectivity tests were made when the plants had reached the two-leave to four-leave state, i.e. when the total plant height was about 10 to 12 cm. The amount of water applied in addition to the composition was equivalent to 1000 liters per hectare in each case. As a comparative substance (formulated in the same manner as the inventive CBPA or its salts) a recently developed standard herbicide, Diclofop-methyl, (BSI-approved common name) was used.
The effects were rated again by the EWRC-scale mentioned above and the results are given in Table II below indicating the results at varying amounts of the applied substance (in kilograms of active substance per hectare) after 7, 14 and 21 days subsequent to the treatment.

[2] = tested on: Corn (Zea mais); assay: Field test, crop compatibility (EWRC-evaluation); assay type: in vivo
Text: (§2) The composition prepared according to example 6 was used in field tests and compared with a composition of the type set forth in example 6 with the modification that the CBPA was replaced by the same amount of a conventional herbicide, i.e. Methabenzthiazuron (BSI approved common name). A "logarithmic" spraying apparatus of the type known in herbicide evaluation was used for these tests. This apparatus comprises an elongated spraying device connected with a reservoir for the composition to be tested, and a water reservoir. Separate test areas were sprayed with this apparatus and each composition was applied as an aqueous suspension. […] The apparatus was operated such that the initial concentration of the active ingredient was equivalent to 10 kg/ha and decreased as follows:
(§3) The amount of water applied by the apparatus remained constant and was equivalent to 666 liters per hectare. The tests were made in early August of 1976. The test areas were seeded with crop plant on a substantially weed-free soil, a middle-heavy sandy clay. One test area (zero-control) was seeded but not sprayed. Four weeks thereafter, the treated areas were inspected to determine the number of individual weed plants per square meter for five significant types of weeds and to calculate the percent effect according to the formula
as §1

[3] = tested on: Green beans; assay: Field test, crop compatibility (EWRC-evaluation); assay type: in vivo
Text: as §2, §3, §1

[4] = tested on: Rough Henbit (Lamium purpureum); assay: Field test, herbicidal % effect on weeds (logarithmic sprayer); assay type: in vivo; settings: four weeks
Text: as §2, §3, §1

[5] = tested on: Shepherds Purse (Capsella bursa-pastoris); assay: as above; assay type: in vivo; settings: four weeks
Text: as §2, §3, §1

[6] = tested on: Chickweed (Stellaria media); assay: as above; assay type: in vivo; settings: four weeks
Text: as §2, §3, §1

[7] = tested on: Lambs Quarters (Chenopodium album); assay: as above; assay type: in vivo; settings: four weeks
Text: as §2, §3, §1

[8] = tested on: Camomile (Matricaria chamomilla); assay: as above; assay type: in vivo; settings: four weeks
Text: as §2, §3, §1

[9] = tested on: Annual meadow grass (Poa annua); assay: Further field tests, control of Graminae weeds; assay type: in vivo
Text: as §2, §3

[10] = tested on: Barnyard Grass (Echinochloa crus-galli); assay: Further field tests, control of Graminae weeds; assay type: in vivo
Text: as §2, §3

[11] = tested on: Common wild oat (Avena fatua); assay: Further field tests, control of Graminae weeds; assay type: in vivo
Text: as §2, §3

[12] = tested on: monocotyledonous and dicotyledonous weeds; assay: Herbicidal effectiveness against monocotyledonous and dicotyledonous weeds; assay type: in vivo; settings: pre-emergence and post-emergence treatment
[13] = tested on: five significant types of weeds; assay: Field test, average weed effect over five weeds; assay type: in vivo; settings: four weeks
Text: as §2, §3, §1

[14] = tested on: weeds of the Graminae family; assay: Herbicidal effectiveness against Graminae weeds; assay type: in vivo; settings: such as Barnyard grass, Annual meadow-grass, Wild Oat
[15] = tested on: mice; settings: cited from earlier work
[16] = tested on: weed infested crop area; assay: Treatment of weed infested crop area in the two to four leave state; assay type: in vivo
[17] = tested on: Barley; assay: Field test, crop compatibility (EWRC-evaluation); assay type: in vivo; settings: scale 1 = complete absence of plant damage symptoms, 9 = complete damage
Text: as §2, §3, §1

## COC(=O)C(C)Oc1ccc(Oc2ccc(Cl)cc2Cl)cc1 (centres unmarked) [Diclofop-methyl, reference compound]
[1]; 1 kg/ha, 7 days
  Effect on Wild oat rated by EWRC-scale: 2
[1]; 1 kg/ha, 14 days
  Effect on Wild oat rated by EWRC-scale: 4
[1]; 1 kg/ha, 21 days
  Effect on Wild oat rated by EWRC-scale: 4
[1]; 2 kg/ha, 7 days
  Effect on Wild oat rated by EWRC-scale: 3
[1]; 2 kg/ha, 14 days
  Effect on Wild oat rated by EWRC-scale: 5
[1]; 2 kg/ha, 21 days
  Effect on Wild oat rated by EWRC-scale: 5
[1]; 4 kg/ha, 7 days
  Effect on Wild oat rated by EWRC-scale: 5
[1]; 4 kg/ha, 14 days
  Effect on Wild oat rated by EWRC-scale: 7
[1]; 4 kg/ha, 21 days
  Effect on Wild oat rated by EWRC-scale: 8
[1]; 8 kg/ha, 7 days
  Effect on Wild oat rated by EWRC-scale: 5
[1]; 8 kg/ha, 14 days
  Effect on Wild oat rated by EWRC-scale: 6
[1]; 8 kg/ha, 21 days
  Effect on Wild oat rated by EWRC-scale: 8

## O=C(O)COc1ccc(Cc2ccc(Cl)cc2)cc1 [CBPA, 4-(4'-chlorobenzyl)-phenoxy acetic acid]
[2]; in vivo
  Crop compatibility (EWRC-evaluation): 1
[3]; in vivo
  Crop compatibility (EWRC-evaluation): 1
[4]; 2.65 kg/ha a.i.
  Herbicidal % effect on specific weeds: 89%
[4]; 4.3 kg/ha a.i.
  Herbicidal % effect on specific weeds: 91%
[4]; 6.7 kg/ha a.i.
  Herbicidal % effect on specific weeds: 97%
[5]; 2.65 kg/ha a.i.
  Herbicidal % effect on specific weeds: 84%
[5]; 4.3 kg/ha a.i.
  Herbicidal % effect on specific weeds: 96%
[5]; 6.7 kg/ha a.i.
  Herbicidal % effect on specific weeds: 100%
[6]; 2.65 kg/ha a.i.
  Herbicidal % effect on specific weeds: 83%
[6]; 4.3 kg/ha a.i.
  Herbicidal % effect on specific weeds: 100%
[6]; 6.7 kg/ha a.i.
  Herbicidal % effect on specific weeds: 100%
[7]; 2.65 kg/ha a.i.
  Herbicidal % effect on specific weeds: 83%
[7]; 4.3 kg/ha a.i.
  Herbicidal % effect on specific weeds: 100%
[7]; 6.7 kg/ha a.i.
  Herbicidal % effect on specific weeds: 100%
[8]; 2.65 kg/ha a.i.
  Herbicidal % effect on specific weeds: 70%
[8]; 4.3 kg/ha a.i.
  Herbicidal % effect on specific weeds: 90%
[8]; 6.7 kg/ha a.i.
  Herbicidal % effect on specific weeds: 100%
[9]
  Effectiveness for control of Graminae weeds: remarkable effectiveness
[10]
  Effectiveness for control of Graminae weeds: remarkable effectiveness
[11]
  Effectiveness for control of Graminae weeds: remarkable effectiveness
[1]; 1 kg/ha, 7 days
  Effect on Wild oat rated by EWRC-scale: 3
[1]; 1 kg/ha, 14 days
  Effect on Wild oat rated by EWRC-scale: 4
[1]; 1 kg/ha, 21 days
  Effect on Wild oat rated by EWRC-scale: 4
[1]; 2 kg/ha, 7 days
  Effect on Wild oat rated by EWRC-scale: 4
[1]; 2 kg/ha, 14 days
  Effect on Wild oat rated by EWRC-scale: 6
[1]; 2 kg/ha, 21 days
  Effect on Wild oat rated by EWRC-scale: 8
[1]; 4 kg/ha, 7 days
  Effect on Wild oat rated by EWRC-scale: 5
[1]; 4 kg/ha, 14 days
  Effect on Wild oat rated by EWRC-scale: 9
[1]; 4 kg/ha, 21 days
  Effect on Wild oat rated by EWRC-scale: 9
[1]; 8 kg/ha, 7 days
  Effect on Wild oat rated by EWRC-scale: 5
[1]; 8 kg/ha, 14 days
  Effect on Wild oat rated by EWRC-scale: 9
[1]; 8 kg/ha, 21 days
  Effect on Wild oat rated by EWRC-scale: 9
[12]
  Herbicidal effectiveness against monocotyledonous and dicotyledonous weeds: remarkable degree of effectiveness
[12]; listed as 4-(4'-chlorobenzyl)-phenoxy acetic acid
  Herbicidal effectiveness against monocotyledonous and dicotyledonous weeds: surprisingly high degree of herbicidal effectiveness
[13]; 2.65 kg/ha a.i.
  Average weed effect (%): 81.8%
[13]; 4.3 kg/ha a.i.
  Average weed effect (%): 95.4%
[13]; 6.7 kg/ha a.i.
  Average weed effect (%): 99.4%
[14]
  Effectiveness when controlling weeds of the Graminae family: particularly beneficial and high degree of effectiveness
[15]
  LD50 (acute oral toxicity): 2700 mg per kilogram of body weight
[16]; two to four leave state, in addition to residual effectiveness
  Contact effect: remarkable contact effect
[16]; weeds and crops in two to four leave state
  Result of treatment in two to four leave state: positive results

## CNC(=O)N(C)c1nc2ccccc2s1 [Methabenzthiazuron, reference compound]
[2]; Corn, 2.65 kg/ha a.i., scale 1 = complete absence of plant damage symptoms, 9 = complete damage, tolerance limit between 4 and 5
  Crop compatibility (EWRC-evaluation): 1
[2]; Corn, 4.3 kg/ha a.i., scale 1 = complete absence of plant damage symptoms, 9 = complete damage
  Crop compatibility (EWRC-evaluation): 1
[2]; Corn, 6.7 kg/ha a.i., scale 1 = complete absence of plant damage symptoms, 9 = complete damage
  Crop compatibility (EWRC-evaluation): 1
[3]; Green beans, 2.65 kg/ha a.i., scale 1 = complete absence of plant damage symptoms, 9 = complete damage, tolerance limit between 4 and 5
  Crop compatibility (EWRC-evaluation): 1
[3]; Green beans, 4.3 kg/ha a.i., scale 1 = complete absence of plant damage symptoms, 9 = complete damage
  Crop compatibility (EWRC-evaluation): 1
[3]; Green beans, 6.7 kg/ha a.i., scale 1 = complete absence of plant damage symptoms, 9 = complete damage
  Crop compatibility (EWRC-evaluation): 1
[17]; 2.65 kg/ha a.i., tolerance limit between 4 and 5
  Crop compatibility (EWRC-evaluation): 1
[17]; 4.3 kg/ha a.i.
  Crop compatibility (EWRC-evaluation): 1
[17]; 6.7 kg/ha a.i., tolerance limit between 4 and 5
  Crop compatibility (EWRC-evaluation): 5
[4]; 2.65 kg/ha a.i.
  Herbicidal % effect on specific weeds: 0%
[4]; 4.3 kg/ha a.i.
  Herbicidal % effect on specific weeds: 73%
[4]; 6.7 kg/ha a.i.
  Herbicidal % effect on specific weeds: 80%
[5]; 2.65 kg/ha a.i.
  Herbicidal % effect on specific weeds: 95%
[5]; 4.3 kg/ha a.i.
  Herbicidal % effect on specific weeds: 99%
[5]; 6.7 kg/ha a.i.
  Herbicidal % effect on specific weeds: 100%
[6]; 2.65 kg/ha a.i.
  Herbicidal % effect on specific weeds: 100%
[6]; 4.3 kg/ha a.i.
  Herbicidal % effect on specific weeds: 100%
[6]; 6.7 kg/ha a.i.
  Herbicidal % effect on specific weeds: 100%
[7]; 2.65 kg/ha a.i.
  Herbicidal % effect on specific weeds: 87%
[7]; 4.3 kg/ha a.i.
  Herbicidal % effect on specific weeds: 94%
[7]; 6.7 kg/ha a.i.
  Herbicidal % effect on specific weeds: 98%
[8]; 2.65 kg/ha a.i.
  Herbicidal % effect on specific weeds: 88%
[8]; 4.3 kg/ha a.i.
  Herbicidal % effect on specific weeds: 100%
[8]; 6.7 kg/ha a.i.
  Herbicidal % effect on specific weeds: 100%
[13]; 2.65 kg/ha a.i.
  Average weed effect (%): 74%
[13]; 4.3 kg/ha a.i.
  Average weed effect (%): 91.5%
[13]; 6.7 kg/ha a.i.
  Average weed effect (%): 95.6%
